This is an account of results in article PMC13327620, “A Deep‐Red‐Absorbing Osmium(II) Complex as a Photosensitizer for Photodynamic Therapy Inducing Immunogenic Cell Death” (Angewandte Chemie (International Ed. in English), 2026).

Read-outs that look alike come from different tables or passages of the source. Where only a bound is given, the exact number is not on record here.

Series [1] has as its system CT26‐luc cells. Briefly: Annexin V-FITC/propidium iodide (AV/PI) cell viability assay by flow cytometry. The settings on record: in the dark, 24 h. The class given is cell-based, mouse. As for the experimental part: Following the gold standard assessment method, the Annexin V‐FITC/propidium iodide (AV/PI) dual staining assay was conducted to screen the suitable concentrations of each drug (Figure S25). In addition, to better monitor tumor growth in vivo, luciferase‐labelled tumor cells (CT26‐luc) were used for in vivo experiments by bioluminescence imaging. […] As the concentration of each drug was increased, the proportion of live cells decreased, while the percentage of dying cells (Q3, Annexin V^+/PI^−) and dead cells (Q2, Annexin V^+/PI^+ and Q1, Annexin V^−/PI^+) increased. The concentrations at which approximately 5% of the cells remained alive (IC95) were 600 µM for Cisplatin in the dark, 1.8 µM for Os2, and 6.5 µM for Ce6 upon 740 nm LED light irradiation (60 min, 12.6 J cm^−2). These concentrations were selected for the subsequent in vivo vaccination studies. […]
incubated for 24 h. Cells were then treat ed with the determined IC50 of complexes and irradiated or kept in the dark. Supernatants were collected 12 h post-t reatm ent, and the extracellular ATP content was measured with Adenosine 5′ -triphosphate (ATP) Bioluminescent Assay Kit (Sigma-Aldrich) according tomanufacturer ’s ins truction. […]
(§1) 556419) and PI (BD Biosciences, Catalog no.51- 66211E). CT26- luc cells were analyzed by flow cytometry (Beckm an Coulter Life Sciences, CytoFLEX LX Flow Cytometer). […]
A general note: In flow cytometry, cells or beads pass a laser one at a time.

Series [2] relates to MCA205 cells. The description is as above. The class given is cell-based, mouse. The following applies: MCA205, in the dark.
Text: Regarding the optimal dose of each drug for in vivo vaccination, we continued to follow the same standards as with CT26‐luc cells, using the concentration of each drug that results in approximately 5% of live cells as the in vivo dose. The testing method remained the same, using the AV/PI dual staining assay. Negative controls still included the untreated group (direct injection of PBS solution) and the non‐ICD inducer Cisplatin. Based on the in vitro HMGB‐1 release results, Ce6 was maintained as the positive control. For a more comprehensive comparison, we also added the platinum‐based chemotherapeutic agent Oxaliplatin as a non‐PS ICD inducer, serving as an additional positive control.
As the drug concentration increased, the cells gradually shifted to dying (Q3, Annexin V^+/PI^−) or dead (Q2, Annexin V^+/PI^+ and Q1, Annexin V^−/PI^+) state. For MCA205 cells, the concentrations corresponding to approximately 5% cell survival for each drug were 500 µM Cisplatin and 1400 µM Oxaliplatin in the dark, 5.5 µM Ce6 and 3 µM Os2 under 740 nm LED light illumination. […]
incubated for 24 h. Cells were then treat ed with the determined IC50 of complexes and irradiated or kept in the dark. Supernatants were collected 12 h post-t reatm ent, and the extracellular ATP content was measured with Adenosine 5′ -triphosphate (ATP) Bioluminescent Assay Kit (Sigma-Aldrich) according tomanufacturer ’s ins truction.
Cell viability assay f o r in vivo by flow cytometry
CT26-luc or MCA205 cells were seeded in 6-well plates at a density of 1 ×1 05 cells per well and cultured for 24 h at 37 °C with 5% CO 2. The medium was replaced by various concentrations of the compound dilutions in fresh medium.For Ce6 and Os2, after 4 h incubation in the dark, the medium w as r efr eshed and the plates wer e illuminated with a LUMOS-BIO photoreactor (Atlas Photonics), followed by an additional 20- h incubation in the dark. […]
as §1

Series [3] deals with MCA205 cells. As to the kind of experiment: In vivo vaccination and rechallenge, MCA205 model. The following applies: vaccination with MCA205 cells pre-treated with 500 µM Cisplatin or 1400 µM Oxaliplatin (dark), 5.5 µM Ce6 or 3 µM Os2 (740 nm). Also on record: species or system C57BL/6 mice. From the text: Next, we used these concentrations in the MCA205 vaccination and rechallenge model on C57BL/6 mice to test the in vivo ICD effect of Os2, following the same experimental procedure as that used for CT26‐luc cells in Figure 5A. […] Body weights remained stable across all groups throughout the study, further supporting the good in vivo biosafety of Os2.
The BALB/c female mice were randomly divided into 4 groups with each group containing 5 mice, which were named as Control group, Cisplatin group, Ce6 group and Os2 group. CT26-luc cells wer e treat ed in vitro with 600 µM Cisplatin in the dark, 6.5 µM Ce6 or 1.8 µM Os2 upon 740 nm LED light irradiation (60 min, 12.6 J cm-2) following the methods described above. Subsequently, treated CT26-luc cells (3×10^5 cells in 100 µ L sterile PBS) or 100 µ L sterile PB S were injected subcutaneously into the left flank of each mouse. One week later, mice were r echalleng ed by injection with untreated CT26- luc cells (1×10^6 cells in 100 µL sterile PBS). The mice were monitored by an in vivo imaging system (Biospace Lab, Photon Imager Optima) and the tumor volume was calculated with the following equation: tumor volume = width 2 × length × […]
In vivo vaccination study on MCA205 cells
The C57BL/6 mice were randomly divided into 5 groups with each group containing 10 mice, whi ch w ere nam ed as Control group, Cisplatin group, Oxaliplatin group, Ce6 group and Os2 group. M CA205 cells were treated in vitro with 500 µM Cisplatin o r 1400 µM Oxaliplatin in the dark, 5.5 µM Ce6 or 3 µM Os2 upon 740 nm LED light irradiation (60 min, 12.6 J cm-2) following the methods described above. Subsequently, treated MCA205 cells (3 ×10^5 cells in 100 µ L sterile PBS) or 100 µ L sterile PBS were injected subcutaneously into the left flank of each mouse. One week later, mice were rechallenged by injection with untreated MCA205 cells (1×10^6 cells in 100 µ L sterile PBS). The tumor volume was calculated with the following equation: tumor volume =

Series [4] deals with mouse fibrosarcoma (MCA205) cells. Briefly: Resazurin cell viability assay, phototoxicity. The class given is cell-based. The following applies: MCA-205, light or radiation study, 1 h, MCA205, 740 nm, 60 min, 12.60 J/cm2. As to the method:
(100 U ml−1), streptomycin (100 U ml−1), and 1% L-glutamine. The murine fibrosarcom a (MCA205) cells were cultured in RPMI 1640 medium with 10% fetal bovine serum (FBS), penicillin (100 U ml−1), streptomycin (100 U ml−1), and 1% L-glutamine. All cells were incubated at 37 °C in a humidified atmosphere with 5 % CO2.
(§2) Normoxia. The in vitro viability of cells exposed to the complexes was determined using a resazurin assay. C ells were seeded in 96-well plates at densities of 4,000 cells/well for CT26, MC A205 and U-87 MG cells, and 8,000 cells/well for MRC-5 and NIH/3T3 cells. A fter 24 h of growth at 37 °C wit h 5% CO2, the medium was replaced with fresh medium containing various concentrations of the compounds . Following a 4- h incubation in the dark, the medium was refres hed , and the plates were exposed to irradiation usinga LUM OS -BIO photoreactor (At las Photonics).N on- ir rad iated plates were similarly refr eshed with medium and kept in the dark for the same duration. After a 40- h r ecov ery period, a f reshly pr epar ed resazurin solution (0.2 mg/mL) was added to each well, and the plates were left in the dark for 4 h before analysis on a B i o Te k Cytation 5 Cell Imaging Multimode Reader (Agil ent Technologies). […]
For orientation: The colour change of resazurin is a common sign of viable cells or microbes.

Series [5] relates to mouse colon adenocarcinoma (CT26) cells. As to the kind of experiment: Resazurin cell viability assay, (photo)cytotoxicity, normoxia. The following applies: for IC50: Mus musculus, normoxia. Type of series: cell-based. As to the method: Given that most ICD studies focus on breast, non‐small cell lung carcinoma, and colon cancer, and since ICD was first discovered in mouse colon cancer cells (CT26), we initially tested our compounds on CT26 cells. Cells were incubated with nine different concentrations (mainly from 0.01 to 100 µM) of the compounds for 4 h in the dark. Then, the diluted solutions containing the compounds were replaced by fresh medium, and the cells were either illuminated or kept in the dark for 1 h more. After 2 days, IC50 values (concentration of the agent inhibiting cell growth by 50%) were determined with the resazurin assay, using chlorin e6 (Ce6) and protoporphyrin IX (PpIX) for comparison (Figure S10). The clinically approved chlorin mixture Radachlorin contains ∼80% Ce6, while 5‐aminolevulinic acid (Ameluz and Levulan) and methyl 5‐aminolevulinate (Metvix and Metvixia) serve as precursors of PpIX. Therefore, Ce6 and PpIX were used for comparison purposes.
(100 U ml−1), streptomycin (100 U ml−1), and 1% L-glutamine. […]
All cells were incubated at 37 °C in a humidified atmosphere with 5 % CO2.
as §2

Series [6] is described as follows: Photophysical properties (fluorescence and singlet oxygen quantum yield, lifetime). Type of series: physicochemical. The following applies: in ethanol. As to the method: System Inc, Phoenixville, PA, USA). The excitation beam is separated by a SPEX dual […]
network monochromator (1200 lines / mm blazed at 330 nm). The fluorescence was […]
measured by the UV-Visible detector via the SPEX dual network emission […]
monochromator (1200 lines / mm blazed at 500 nm). Singlet oxygen production was […]
measured with an infrared detector InGaAs (800 - 1550 nm) via the dual network […]
emission monochromator SPEX (600 lines / mm blazed at 1 µm).
All spectra were measured using 4-sided quartz cells. The absorption values of the […]
references and samples at the excitation wavelength were adjusted to 0.2. All emission […]
spectra were normalized to the same absorbance for the purpose of comparison.
[Ru(bpy)3]2+ in acetonitrile was chosen as standard for both fluorescence and singlet […]
oxygen quantum yield determination. Fluorescence quantum yield of [ Ru(bpy)3]2+ i n […]
acetonitrile is evaluated at 0.077.[5] Singlet oxygen quantum yield of [ Ru(bpy)3]2+ i n […]
acetonitrile is evaluat ed at 0.77.[6]
Time-resolved experiments were performed using for excitation: a pulsed laser diode […]
emitting at 407 nm (LDH-P-C-400M, FWHM < 70 ps, 1 MHz) coupled with a driver […]
PDL 800- D (both PicoQuant GmbH, BERLIN, Germany) and for detection: an […]
avalanch e photodiode SPCM-AQR-15 (EG & G, VAUDREUIL, Can ada) coupled with […]
a 650 nm long- wav e p ass filter as det ection system. The acquisition was p erformed by […]
a PicoHarp 300 module with a 4 channels router PHR-800 (both PicoQuant GmbH, […]
BERLIN, Germany ). Th e fluores cence decays were recorded using the single photon […]
counting method. Data were collected up to 1000 counts accumulated in the maximum […]
channel and analyzed using Time Correlated Single Photon Counting (TCSPC) […]
software Fluofit (PicoQuant GmbH, BERLIN, Germany) based on iterative reconvolution using a Levensberg- M arquandt alg oritm, enabling the obtention of multi-exponential profiles (m ainly one or two exponenti als in our cases ). […]

The conditions of series [7]: standard, in acetonitrile; cited from earlier work.

For the molecule `N.N.[Cl][Pt][Cl]` [Cisplatin], in series [1], the “Concentration at which approximately 5% of the cells remained alive (IC95)” value is listed as 600 µM. The “Concentration corresponding to approximately 5% cell survival” value in series [2] was 500 µM. Besides, in series [3], the Tumor growth entry is on record as “Almost no inhibition”.

Take `Cc1cc(O)c2c(=O)c3c(O)cc(O)c4c5c(O)cc(O)c6c(=O)c7c(O)cc(C)c8c1c2c(c34)c(c78)c65` [Hypericin]: in series [4], the IC50 was 1.66 ± 0.18 µM.

Consider `O=C1[O][Pt]2([NH][C@@H]3CCCC[C@H]3[NH]2)[O]C1=O` [Oxaliplatin], for which, in series [2], the “Concentration corresponding to approximately 5% cell survival” value is on record as 1400 µM. Also, the Tumor growth entry in series [3] is given as “partial suppression”.

Consider `C=CC1=C(C)c2cc3[nH]c(cc4nc(cc5[nH]c(cc1n2)c(C)c5CCC(=O)O)C(CCC(=O)O)=C4C)c(C)c3C=C` [PpIX, protoporphyrin IX], for which the “PI (phototoxicity index, IC50 dark/IC50 light)” value in series [5] (CT26, 620 nm) is reported as more than 110. Besides, in series [5] (CT26, CT26, dark, read-out: IC50 Dark), the IC50 was more than 100 µM. Moreover, the IC50 in series [5] (CT26, light or radiation study, 1 h, CT26, 620 nm, 1.88 mW/cm^2, 60 min, read-out: IC50 620 nm (1 h, 6.75 J/cm^2)) is 0.91 ± 0.1 µM. In series [4], the IC50 is 4.41 ± 0.09 µM. Moreover, in series [6], the Fluorescence lifetime is recorded as 12.1 ns, the Fluorescence quantum yield stood at 0.05 and the “Singlet oxygen quantum yield” value was found to be 0.77.

Turning to `[Ru+2].c1ccc(-c2ccccn2)nc1.c1ccc(-c2ccccn2)nc1.c1ccc(-c2ccccn2)nc1` [[Ru(bpy)3]2+], in series [7], the Fluorescence quantum yield was 0.077 and the “Singlet oxygen quantum yield” value was 0.77.
